According to ChEMBL document CHEMBL1129619, “New series of potent, orally bioavailable, non-peptidic cyclic sulfones as HIV-1 protease inhibitors” (J Med Chem, 1996):
pEC50, pIC50: −log10 of the molar value.

Experiments:
[1] = target: Human immunodeficiency virus type 1 protease (Human immunodeficiency virus 1, UniProt Q72874); test: Concentration needed to inhibit HIV- protease activity by 50%.
[2] = Selective ratio between EC50 ancd CC50 values calculated; type: functional
[3] = Cytotoxic Concentration needed to produce 50% reduction in the number of viable MT2 cells assayed by metabolism of a tetrazolium dye.; type: cell-based; details: human
MT2 [4] = test: Concentration needed to inhibit HIV-1 virus replication in MT2 cells by 50% as determined by XTT assay.; type: functional, cell-based; details: Homo sapiens
[5] = Selectivity ratio between EC50 ancd CC50 values of the compound; type: functional
MT2 [6] = test: Concentration needed to inhibit HIV-1 virus replication in MT2 cells by 90% as determined by XTT assay.; type: functional; details: Homo sapiens

Structure (SMILES): Nc1cccc(CO[C@@H]2[C@H](O)[C@@H](O)[C@@H](OCc3cccc(N)c3)[C@@H](Cc3ccccc3)S(=O)(=O)[C@@H]2Cc2ccccc2)c1
- pIC50 [1]: 9.00
- SI [2]: 3330
- CC50 [3]: 30000 nM
- pEC50 (MT2 [4]): 8.05

Structure (SMILES): O=S1(=O)[C@H](Cc2ccccc2)[C@H](OCc2ccccc2)[C@H](O)[C@@H](O)[C@@H](OCc2ccccc2)[C@H]1Cc1ccccc1
- SI [5]: 150
- EC90 (MT2 [6]): 70 nM
- pIC50 [1]: 9.22
- CC50 [3]: 6000 nM
- pEC50 (MT2 [4]): 7.40

Structure (SMILES): O=S1(=O)[C@H](Cc2ccccc2)[C@H](OCc2cncs2)[C@H](O)[C@@H](O)[C@@H](OCc2cncs2)[C@H]1Cc1ccccc1
- SI [5]: 6150
- EC90 (MT2 [6]): 40 nM
- pIC50 [1]: 9.52
- CC50 [3]: 40000 nM
- pEC50 (MT2 [4]): 8.19
